Reference: patent US9226498B2
Where two headings read alike, the source gives them in different places.

Legend:
[1] = system: tame oats (AVESA); assay: Trial III field trial, postemergence crop injury; assay type: in vivo, Avena sativa
[2] = system: tame oats (AVESA); assay: Trial IV field trial, postemergence crop injury; assay type: in vivo, Avena sativa
[3] = system: spring barley (HORVS); assay: Trial IV cont. field trial, postemergence crop injury; assay type: in vivo, Hordeum vulgare L
[4] = system: spring barley (HORVS); assay: Trial V field trial, postemergence crop injury; assay type: in vivo, Hordeum vulgare L
[5] = system: spring wheat (TRZAS); conditions: Trial I
Description: (§1) Five small plot field trials were established across various ecozones to evaluate the crop safety of florasulam and 4-amino-3-chloro-6-(4-chloro-2-fluoro-3-methoxy-phenyl)pyridine-2-carboxylic acid TEA (triethylamine) salt or of florasulam and 4-amino-3-chloro-6-(4-chloro-2-fluoro-3-methoxyphenyl)pyridine-2-carboxylic acid methyl ester, when applied alone or in combination, on spring cereals including spring wheat, spring barley and tame oats.
(§2) In Trials III, IV, and V the methyl ester of the compound of formula (I) was applied alone at rates of 5-10 g ae/ha using a formulation containing 200 grams acid equivalent per kilogram (g ae/kg) of the methyl ester with 0.5% v/v Turbocharge adjuvant. […] All herbicide treatments were applied post-emergence in the spring to early summer Herbicides were applied with bicycle- or tractor-mounted sprayers using carbon dioxide (CO2) as a propellant. The sprayers delivered a uniform spray pattern that provided thorough coverage of the foliage using a 100 liter per hectare (L/ha) spray volume. At the time of herbicide applications, spring barley, spring wheat and tame oats were at the two leaf stage to the seven leaf, three tiller stage. Phytotoxicity to cereal crops was visually assessed as percent overall injury, compared to an untreated control plot. The overall injury assessments were based on visual ratings of growth inhibition, chlorosis, and delay in maturity. At late ratings, percent visual seed head deformity was also assessed. Trials were designed as randomized complete blocks with four replicates. In general, three to four replicates were assessed for each treatment.
(§3) Colby's equation is: Expected=A+B−(A×B/100) • A=observed efficacy of active ingredient A at the same concentration as used in the mixture; • B=observed efficacy of active ingredient B at the same concentration as used in the mixture.

[6] = system: spring wheat (TRZAS); conditions: Trial II
Description: as §1, §2, §3

## COC(=O)c1nc(-c2ccc(Cl)c(OC)c2F)cc(N)c1Cl [Compound II]
[1]; Compound II 5 g ae/ha alone
  Percent (%) Visual Head Deformity 70 DAT Obs: 7.5 cd %
  Percent (%) Visual Injury 7 DAT Obs: 0.0 d %
  Percent (%) Visual Injury 16 DAT Obs: 2.5 de %
  Percent (%) Visual Injury 31 DAT Obs: 5.0 fg %
  Percent (%) Visual Injury 70 DAT Obs: 15.8 def %
[1]; Compound II 10 g ae/ha alone
  Percent (%) Visual Head Deformity 70 DAT Obs: 15.0 bcd %
  Percent (%) Visual Injury 7 DAT Obs: 0.0 d %
  Percent (%) Visual Injury 16 DAT Obs: 13.8 cde %
  Percent (%) Visual Injury 31 DAT Obs: 25.0 de %
  Percent (%) Visual Injury 70 DAT Obs: 33.8 bcd %
[2]; Compound II 5 g ae/ha alone
  Percent (%) Visual Injury 7 DAT Observed: 0.0 d %
  Percent (%) Visual Injury 14 DAT Observed: 2.0 cde %
  Percent (%) Visual Injury 28 DAT Observed: 3.3 de %
  Percent (%) Visual Injury 53 DAT Observed: 2.5 fgh %
[2]; Compound II 10 g ae/ha alone
  Percent (%) Visual Injury 7 DAT Observed: 1.3 bcd %
  Percent (%) Visual Injury 14 DAT Observed: 9.5 abc %
  Percent (%) Visual Injury 28 DAT Observed: 14.5 ab %
  Percent (%) Visual Injury 53 DAT Observed: 9.4 abc %
[3]; Compound II 5 g ae/ha alone
  Percent (%) Visual Head Deformity Obs: 0.0 a %
  Percent (%) Visual Injury 7 DAT Obs: 0.0 e %
  Percent (%) Visual Injury 14 DAT Obs: 0.0 c %
  Percent (%) Visual Injury 28 DAT Obs: 3.3 de %
  Percent (%) Visual Injury 70 DAT Obs: 2.5 fgh %
[3]; Compound II 10 g ae/ha alone
  Percent (%) Visual Head Deformity Obs: 1.3 a %
  Percent (%) Visual Injury 7 DAT Obs: 0.0 e %
  Percent (%) Visual Injury 14 DAT Obs: 0.0 c %
  Percent (%) Visual Injury 28 DAT Obs: 14.5 ab %
  Percent (%) Visual Injury 70 DAT Obs: 9.4 abc %
[4]; Compound II 5 g ae/ha alone
  Percent (%) Head Deformity 64 DAT Obs: 0.3 b %
  Percent (%) Injury Visual 15 DAT Obs: 0.5 a %
  Percent (%) Visual Injury 27 DAT Obs: 1.0 c %
  Percent (%) Visual Injury 49 DAT Obs: 0.0 c %
[4]; Compound II 10 g ae/ha alone
  Percent (%) Head Deformity 64 DAT Obs: 21.8 ab %
  Percent (%) Injury Visual 15 DAT Obs: 0.5 a %
  Percent (%) Visual Injury 27 DAT Obs: 0.0 c %
  Percent (%) Visual Injury 49 DAT Obs: 0.5 bc %

## COc1c(Cl)ccc(-c2cc(N)c(Cl)c(C(=O)O)n2)c1F [Compound I]
[5]; Compound I 17.5 g ae/ha alone
  Percent (%) Visual Incidence Head Deformity 71 DAT Obs: 20 d-g %
  Percent (%) Visual Injury 71 DAT Obs: 12.5 cd %
[5]; Compound I 35 g ae/ha alone
  Percent (%) Visual Incidence Head Deformity 71 DAT Obs: 60 a %
  Percent (%) Visual Injury 71 DAT Obs: 32.5 a %
[6]; Compound I 17.5 g ae/ha alone
  Percent (%) Visual Incidence Head Deformity 55 DAT Obs: 7.5 cde %
  Percent (%) Visual Injury 55 DAT Obs: 5.8 de %
[6]; Compound I 35 g ae/ha alone
  Percent (%) Visual Incidence Head Deformity 55 DAT Obs: 43.8 ab %
  Percent (%) Visual Injury 55 DAT Obs: 35 a %

## COc1ncc(F)c2nc(S(=O)(=O)Nc3c(F)cccc3F)nn12 [Florasulam, 2′,6′,8-trifluoro-5-methoxy[1,2,4]triazolo[1,5-c]pyrimidine-2-sulfonanilide, reference compound]
[5]; Florasulam 5 g ai/ha alone
  Percent (%) Visual Incidence Head Deformity 71 DAT Obs: 0.0 g %
  Percent (%) Visual Injury 71 DAT Obs: 0 e %
[6]; Florasulam 5 g ai/ha alone
  Percent (%) Visual Incidence Head Deformity 55 DAT Obs: 0.0 e %
  Percent (%) Visual Injury 55 DAT Obs: 0.0 e %
